# Source: PMC11073699, “Odorant receptors for floral- and plant-derived volatiles in the yellow fever mosquito, Aedes aegypti (Diptera: Culicidae)” (PLOS ONE, 2024)
# Values joined by “and” are separate entries in the source; they are usually repeats but may differ in a detail not shown here. Equal values may be shown once.
# Columns and labels:
# Format in all cases: cell-based
# AaegOR11 = molecular target: T1, AaegOR11 (Aedes aegypti, UniProt Q16PN4); assay: Two-electrode voltage clamp of Xenopus laevis oocytes expressing AaegOR11/Orco (blends, unitary compounds, concentration-response); details: for Normalized response, Average, unitary compounds of blend Terpenes 3: average over oocytes (9; fenchones 6); for Normalized response, unitary compounds of blend Terpenes 3: individual oocytes, normalized to cis-Decahydro-1-napthol = 100; for Raw data (Responses in nA), unitary compounds, additional oocytes: six further oocytes in columns without head (fenchone comparison with cis-Decahydro-1-napthol); for Raw data (Responses in nA), unitary compounds of blend Terpenes 3: individual oocytes 1-9 (replicates); for Raw Data (Responses in nA), concentration-response: oocytes 1-9
# T1 sequence (Q16PN4 1-420): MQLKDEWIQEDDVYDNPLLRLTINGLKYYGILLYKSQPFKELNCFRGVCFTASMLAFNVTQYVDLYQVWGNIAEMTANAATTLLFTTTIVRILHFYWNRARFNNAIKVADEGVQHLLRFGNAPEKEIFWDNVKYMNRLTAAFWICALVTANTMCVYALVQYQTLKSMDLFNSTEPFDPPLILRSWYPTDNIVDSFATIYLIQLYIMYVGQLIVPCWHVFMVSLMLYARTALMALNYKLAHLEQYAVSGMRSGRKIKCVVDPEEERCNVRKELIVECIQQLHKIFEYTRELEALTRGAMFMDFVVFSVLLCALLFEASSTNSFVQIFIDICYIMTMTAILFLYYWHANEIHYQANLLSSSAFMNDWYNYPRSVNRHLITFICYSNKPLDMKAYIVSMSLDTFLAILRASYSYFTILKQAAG
# T1 sequence (Q178U6 1-478 partner): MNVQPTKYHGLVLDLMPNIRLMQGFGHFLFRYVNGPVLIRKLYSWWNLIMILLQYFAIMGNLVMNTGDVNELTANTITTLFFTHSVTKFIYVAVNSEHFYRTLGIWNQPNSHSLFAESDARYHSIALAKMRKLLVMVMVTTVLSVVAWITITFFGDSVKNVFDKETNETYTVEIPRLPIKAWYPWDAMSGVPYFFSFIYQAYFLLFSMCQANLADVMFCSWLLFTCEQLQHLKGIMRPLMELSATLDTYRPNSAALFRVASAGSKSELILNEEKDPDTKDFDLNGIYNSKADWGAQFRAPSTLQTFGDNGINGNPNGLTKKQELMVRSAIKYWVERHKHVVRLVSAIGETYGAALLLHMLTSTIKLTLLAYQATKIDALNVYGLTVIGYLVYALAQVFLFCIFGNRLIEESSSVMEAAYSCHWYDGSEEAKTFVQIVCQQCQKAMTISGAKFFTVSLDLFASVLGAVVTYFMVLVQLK
# From the text: (§1) The coding regions of ten AaegOR genes of interest (S3 File) and AaegOrco were synthesized by Twist Bioscience (San Francisco, CA, USA) and cloned into the pENTR plasmid. The Gateway LR directional cloning system (Invitrogen Corp., Carlsbad, CA, USA) was utilized to subclone AaegOR coding regions into the pSP64t-RFA oocyte expression plasmid. Plasmids were purified using the GeneJet Plasmid Miniprep Kit (ThermoFisher Scientific, Waltham, MA, USA). Purified plasmids were sequenced in both directions to confirm coding regions.
# (§2) Chemical compounds (S6 File) used in the deorphanization of AaegORs were purchased from Acros Organics (Morris, NJ, USA), Alfa Aesar (Ward Hill, MA, USA), and ThermoFisher Scientific (Waltham, MA, USA) at the highest purity available. Compounds were stored as 1M stocks in 100% DMSO. Serial dilutions of each compound were prepared in 10% DMSO and blended by chemical class.
# (§3) pSP64t-RFA: AaegOR clones were linearized using Xbal, and cRNAs were synthesized using the mMESSAGE mMACHINE ® SP6 kit (Life Technologies, Carlsbad, CA, USA). Xenopus laevis stage V-VII oocytes purchased from Xenopus1 (Dexter, MI, USA) were stored at 18°C in Incubation medium (ND96 96 with 5% dialyzed horse serum, 50μg/mL gentamycin, 100μg/mL streptomycin, 100μg/mL penicillin, and 550μg/mL sodium pyruvate). 30nL of cRNA was injected into multiple oocytes using a microinjection syringe pump (World Precision Instruments, Sarasota, FL, USA) maintained at 18°C for 48–72 hrs. Odorant blends were perfused across individual oocytes for 10–15 seconds, held at a resting membrane potential of -80 mV using an OC-725C oocyte clamp (Warner Instruments, LLC, Hamden, CT, USA). Induced currents were measured indirectly using the two-electrode voltage clamp technique (TEVC). Following each stimulus, currents were allowed to return to baseline before further stimulation. Data was captured using the Digidata 1550 B digitizer and PClamp10 software (Molecular Devices, San Jose, CA, USA). Concentration-response curves were generated by perfusing unitary odorants over oocytes at increasing concentrations from [10^-3M] to [10^-9M]. Data were analyzed using GraphPad Prism 8 (GraphPad Software Inc., La Jolla, CA, USA). At least two biological replicates were conducted at each concentration and for each compound. Data for at least seven oocytes responding to each compound was analyzed (S7 File).
# AaegOR8 = molecular target: T2, AaegOR8 (Aedes aegypti, UniProt Q16MN0); assay: Two-electrode voltage clamp of Xenopus laevis oocytes expressing AaegOR8/Orco (blends, unitary compounds, concentration-response); details: Alcohols 2 unitary compounds
# T2 sequence (Q16MN0 32-422): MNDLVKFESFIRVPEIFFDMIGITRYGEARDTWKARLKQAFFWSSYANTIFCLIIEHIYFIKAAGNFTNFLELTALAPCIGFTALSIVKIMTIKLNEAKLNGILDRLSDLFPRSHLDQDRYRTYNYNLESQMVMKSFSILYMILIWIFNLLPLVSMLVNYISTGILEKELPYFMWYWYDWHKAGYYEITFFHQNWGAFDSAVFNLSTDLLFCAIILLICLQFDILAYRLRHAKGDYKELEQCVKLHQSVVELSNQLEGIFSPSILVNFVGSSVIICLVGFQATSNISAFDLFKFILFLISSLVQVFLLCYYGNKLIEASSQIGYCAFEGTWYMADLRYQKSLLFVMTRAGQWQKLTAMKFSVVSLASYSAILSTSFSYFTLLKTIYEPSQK
# T2 sequence (Q178U6 1-478 partner): T1 sequence (Q178U6 1-478 partner)
# From the text: as §1, §2, §3
# AaegOR15 = molecular target: T3, AaegOR15 (Aedes aegypti, UniProt A0A6B9QIR2); assay: Two-electrode voltage clamp of Xenopus laevis oocytes expressing AaegOR15/Orco (blends, unitary compounds, concentration-response); details: for Raw data (Responses in nA), compounds of blend Alcohols 2: unitary compounds of Alcohols 2, individual oocytes 1-10 (replicates)
# T3 sequence (A0A6B9QIR2 1-390): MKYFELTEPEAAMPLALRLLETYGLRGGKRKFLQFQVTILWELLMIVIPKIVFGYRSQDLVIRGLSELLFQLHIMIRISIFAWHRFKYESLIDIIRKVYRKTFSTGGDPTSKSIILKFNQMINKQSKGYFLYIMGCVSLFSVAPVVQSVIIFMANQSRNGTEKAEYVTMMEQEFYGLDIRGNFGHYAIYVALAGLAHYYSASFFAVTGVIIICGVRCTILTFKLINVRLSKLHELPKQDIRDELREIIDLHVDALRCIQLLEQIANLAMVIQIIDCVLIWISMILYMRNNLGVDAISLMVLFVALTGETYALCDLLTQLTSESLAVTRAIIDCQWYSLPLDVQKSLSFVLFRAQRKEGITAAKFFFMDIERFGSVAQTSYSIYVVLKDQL
# T3 sequence (Q178U6 1-478 partner): T1 sequence (Q178U6 1-478 partner)
# From the text: as §1, §2, §3
compound,measurement,setting,value
"CC1(C)C(=O)[C@@]2(C)CCC1C2 (single isomer, unassigned; (+)) [(+) Fenchone]","Normalized response, Average, unitary compounds of blend Terpenes 3",AaegOR11,36.7
same,"Normalized response, unitary compounds of blend Terpenes 3",AaegOR11,40.0 and 50.0 (2×) and 30.0 and 25.0 (2×)
same,"Raw data (Responses in nA), unitary compounds, additional oocytes",AaegOR11,10 nA
"CC1(C)C(=O)[C@]2(C)CCC1C2 (single isomer, unassigned; (-)) [(-) Fenchone]","Normalized response, Average, unitary compounds of blend Terpenes 3",AaegOR11,23.3
same,"Normalized response, unitary compounds of blend Terpenes 3",AaegOR11,20.0 and 25.0 (2×) and 10.0 (2×) and 50.0
CC1(C)[C@H]2CC[C@]1(C)[C@H](O)C2 [(-)-Borneol],"Raw data (Responses in nA), unitary compounds of blend Terpenes 3",AaegOR11,0 nA
CCCCC/C=C\C=C\C(=O)OCC [Ethyl-2-trans-4-cis-decadienoate],"Normalized response, Average, unitary compounds of blend Terpenes 3",AaegOR11,0.0
same,"Raw data (Responses in nA), unitary compounds of blend Terpenes 3",AaegOR11,0 nA
same,"Normalized response, unitary compounds of blend Terpenes 3",AaegOR11,0.0
CC(=O)OCCC(C)C [Isomyl acetate],"Normalized response, Average, unitary compounds of blend Terpenes 3",AaegOR11,0.0
same,"Raw data (Responses in nA), unitary compounds of blend Terpenes 3",AaegOR11,0 nA
same,"Normalized response, unitary compounds of blend Terpenes 3",AaegOR11,0.0
CC(C)=CCC/C(C)=C\CO [Nerol],"Raw data (Responses in nA), unitary compounds of blend Terpenes 3",AaegOR11,0 nA
C=C1CCC2(C(C)C)CC12 (stereo not shown) [Sabiene],"Normalized response, Average, unitary compounds of blend Terpenes 3",AaegOR11,0.556
same,"Raw data (Responses in nA), unitary compounds of blend Terpenes 3",AaegOR11,0 nA (8×) and 5 nA
same,"Normalized response, unitary compounds of blend Terpenes 3",AaegOR11,0.0 (8×) and 5.0
C=C1CC/C=C(\C)CC[C@@H]2[C@@H]1CC2(C)C [beta-caryophyllene],"Raw data (Responses in nA), unitary compounds of blend Terpenes 3",AaegOR11,10 nA (2×) and 0 nA (6×) and 20 nA
"OC1CCCC2CCCCC12 (stereo not drawn) [cis-decahydro-1-napthol, cis-Decahydro-1-napthol]","Raw Data (Responses in nA), concentration-response",AaegOR11; 1e-6 M,10.0 nA
same,"Raw Data (Responses in nA), concentration-response",AaegOR11; 5e-6 M,15.0 nA and 10.0 nA and 20.0 nA
same,"Raw Data (Responses in nA), concentration-response",AaegOR11; 1e-5 M,15.0 nA and 10.0 nA
same,"Raw Data (Responses in nA), concentration-response",AaegOR11; 0.0005 M,90.0 nA and 60.0 nA and 100.0 nA and 50.0 nA and 65.0 nA
same,"Raw Data (Responses in nA), concentration-response",AaegOR11; 0.001 M,70.0 nA and 40.0 nA and 80.0 nA and 60.0 nA and 45.0 nA
same,EC50,"AaegOR11; AaegOR11/Orco expressing oocytes, TEVC, concentration-response of normalized current",~68.4 µM and 68.4 µM
same,magnitude of response of AaegOR11 to unitary compounds,"AaegOR11; AaegOR11/Orco expressing oocytes, TEVC, individual compounds",greater magnitude of response than (-)-fenchone or (+)-fenchone
same,"Raw data (Responses in nA), unitary compounds of blend Terpenes 3",AaegOR11,70 nA and 100 nA and 30 nA (2×) and 40 nA (2×) and 85 nA and 150 nA and 110 nA
same,"Raw data (Responses in nA), unitary compounds, additional oocytes",AaegOR11,20 nA
OC1CCCCC1 [cyclohexanol],Raw data (Responses in nA) Oocyte 1,AaegOR8,0.0 nA
same,Raw data (Responses in nA) Oocyte 2,AaegOR8,0.0 nA
same,Raw data (Responses in nA) Oocyte 3,AaegOR8,0.0 nA
same,Raw data (Responses in nA) Oocyte 4,AaegOR8,0.0 nA
same,Raw data (Responses in nA) Oocyte 5,AaegOR8,0.0 nA
same,Raw data (Responses in nA) Oocyte 6,AaegOR8,0.0 nA
same,Raw data (Responses in nA) Oocyte 7,AaegOR8,0.0 nA
same,Raw data (Responses in nA) Oocyte 8,AaegOR8,0.0 nA
same,"Raw data (Responses in nA), compounds of blend Alcohols 2",AaegOR15,5.0 nA and 10.0 nA and 30.0 nA and 55.0 nA (2×) and 0.0 nA and 40.0 nA (2×) and 80.0 nA and 35.0 nA
CC12CCC(C1)C(C)(C)C2=O (stereo not shown) [fenchone],Secondary Ligand,"AaegOR11; AaegOR11, secondary ligand identified during the functional characterizations",fenchone
CCC/C=C/CO [trans-2-hexen-1-ol],Raw data (Responses in nA) Oocyte 1,AaegOR8,0.0 nA
same,Raw data (Responses in nA) Oocyte 2,AaegOR8,0.0 nA
same,Raw data (Responses in nA) Oocyte 3,AaegOR8,0.0 nA
same,Raw data (Responses in nA) Oocyte 4,AaegOR8,0.0 nA
same,Raw data (Responses in nA) Oocyte 5,AaegOR8,0.0 nA
same,Raw data (Responses in nA) Oocyte 6,AaegOR8,0.0 nA
same,Raw data (Responses in nA) Oocyte 7,AaegOR8,0.0 nA
same,Raw data (Responses in nA) Oocyte 8,AaegOR8,0.0 nA
same,response of OR15 to unitary compounds,"AaegOR15; AaegOR15/Orco expressing oocytes, TEVC, individual compounds",additional responses
same,"Raw data (Responses in nA), compounds of blend Alcohols 2",AaegOR15,30.0 nA (2×) and 40.0 nA and 310.0 nA and 480.0 nA (2×) and 375.0 nA and 270.0 nA and 440.0 nA and 135.0 nA
CCC/C=C/C=O [trans-2-hexenal],Raw data (Responses in nA) Oocyte 1,AaegOR8,0.0 nA
same,Raw data (Responses in nA) Oocyte 2,AaegOR8,0.0 nA
same,Raw data (Responses in nA) Oocyte 3,AaegOR8,0.0 nA
same,Raw data (Responses in nA) Oocyte 4,AaegOR8,0.0 nA
same,Raw data (Responses in nA) Oocyte 5,AaegOR8,0.0 nA
same,Raw data (Responses in nA) Oocyte 6,AaegOR8,0.0 nA
same,Raw data (Responses in nA) Oocyte 7,AaegOR8,0.0 nA
same,Raw data (Responses in nA) Oocyte 8,AaegOR8,0.0 nA
same,"Raw data (Responses in nA), compounds of blend Alcohols 2",AaegOR15,0.0 nA and 15.0 nA and 30.0 nA (2×) and 10.0 nA and 40.0 nA (2×) and 50.0 nA (2×) and 60.0 nA
